Test results: patent publication US8999957B2, “Heterocyclic compounds as ERK inhibitors” (Merck Sharp & Dohme Corp., priority 2010, dated 2015)
pIC50: −log10 of the molar value.

target: fully phosphorylated, mouse aERK2 enzyme (Mus musculus (Mouse), UniProt P63085); experiment: Active ERK2 (aERK) IMAP-FP assay, condition 2; type: biochemical; conditions: aERK assay condition 2, 30 uM ATP; read-out: aERK IC50
Outline: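 Phosphorylation by fully phosphorylated mouse ERK2 ran 40-45 min, then quenched with IMAP beads (1:1000) in binding buffer; fluorescence polarization read after 30 min binding equilibration.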

fully phosphorylated, mouse aERK2 enzyme, sequence (P63085 whole entry): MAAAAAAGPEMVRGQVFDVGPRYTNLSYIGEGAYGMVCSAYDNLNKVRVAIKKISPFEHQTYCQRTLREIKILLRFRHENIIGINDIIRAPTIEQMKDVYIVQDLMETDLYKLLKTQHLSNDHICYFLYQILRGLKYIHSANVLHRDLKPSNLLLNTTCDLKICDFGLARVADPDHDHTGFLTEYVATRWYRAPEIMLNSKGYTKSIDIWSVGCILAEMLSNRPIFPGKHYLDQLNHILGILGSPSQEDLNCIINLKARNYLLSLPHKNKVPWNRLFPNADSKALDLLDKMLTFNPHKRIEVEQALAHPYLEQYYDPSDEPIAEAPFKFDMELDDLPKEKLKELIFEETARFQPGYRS

pIC50	Compound
7.63	COc1cccc(F)c1CN1C[C@H](NC(=O)c2ccc3[nH]nc(-c4ccnc(C)c4)c3c2)CC[C@H]1C(=O)Nc1ccc(F)cc1 [N-{(3R,6S)-1-(2-fluoro-6-methoxybenzyl)-6-[(4-fluorophenyl)carbamoyl]piperidin-3-yl}-3-(2-methylpyridin-4-yl)-1H-indazole-5-carboxamide]
8.24	COc1ccc(N(C)C(=O)[C@@H]2CC[C@@H](NC(=O)c3ccc4[nH]nc(-c5ccnc(C)c5)c4c3)CN2Cc2c(F)cccc2OC)cc1 [N-{(3R,6S)-1-(2-fluoro-6-methoxybenzyl)-6-[(4-methoxyphenyl)(methyl)carbamoyl]piperidin-3-yl}-3-(2-methylpyridin-4-yl)-1H-indazole-5-carboxamide]
7.94	COc1ccc(NC(=O)[C@@H]2CC[C@@H](NC(=O)c3ccc4[nH]nc(-c5ccnc(C)c5)c4c3)CN2Cc2c(F)cccc2OC)cc1 [N-{(3R,6S)-1-(2-fluoro-6-methoxybenzyl)-6-[(4-methoxyphenyl)carbamoyl]piperidin-3-yl}-3-(2-methylpyridin-4-yl)-1H-indazole-5-carboxamide]
7.30	COc1ccnc(NC(=O)[C@@H]2CC[C@@H](NC(=O)c3ccc4[nH]nc(-c5ccnc(C)c5)c4c3)CN2Cc2c(F)cccc2OC)c1 [N-{(3R,6S)-1-(2-fluoro-6-methoxybenzyl)-6-[(4-methoxypyridin-2-yl)carbamoyl]piperidin-3-yl}-3-(2-methylpyridin-4-yl)-1H-indazole-5-carboxamide]
8.17	COc1cccc(F)c1CN1C[C@H](NC(=O)c2ccc3[nH]nc(-c4ccnc(C)c4)c3c2)CC[C@H]1C(=O)Nc1ccc(C)nc1 [N-{(3R,6S)-1-(2-fluoro-6-methoxybenzyl)-6-[(6-methylpyridin-3-yl)carbamoyl]piperidin-3-yl}-3-(2-methylpyridin-4-yl)-1H-indazole-5-carboxamide]

same assay, conditions: active ERK2; read-out: aErk2 Ic50

Compound	pIC50
COc1cccc(F)c1CN1C[C@H](NC(=O)c2ccc3[nH]nc(-c4ccnc(C)c4)c3c2)CC[C@H]1C(=O)N1CCN(C)CC1 [N-{(3R,6S)-1-(2-fluoro-6-methoxybenzyl)-6-[(4-methylpiperazin-1-yl)carbonyl]piperidin-3-yl}-3-(2-methylpyridin-4-yl)-1H-indazole-5-carboxamide]	7.49
COc1cccc(F)c1CN1C[C@H](NC(=O)c2ccc3[nH]nc(-c4ccnc(C)c4)c3c2)CC[C@H]1C(=O)N(C)OC [N-{(3R,6S)-1-(2-fluoro-6-methoxybenzyl)-6-[methoxy(methyl)carbamoyl]piperidin-3-yl}-3-(2-methylpyridin-4-yl)-1H-indazole-5-carboxamide]	7.95
COc1cccc(F)c1CN1C[C@H](NC(=O)c2ccc3[nH]nc(-c4ccnc(C)c4)c3c2)CC[C@H]1C(=O)N1CCN(C(=O)OC2CCCC2)CC1 [cyclopentyl 4-{[(2S,5R)-1-(2-fluoro-6-methoxybenzyl)-5-({[3-(2-methylpyridin-4-yl)-1H-indazol-5-yl]carbonyl}amino)piperidin-2-yl]carbonyl}piperazine-1-carboxylate]	7.51

Results, then the compound that gave them:

pIC50	Compound
7.24	CCCN(C)C(=O)[C@@H]1CC[C@@H](NC(=O)c2ccc3[nH]nc(-c4ccnc(C)c4)c3c2)CN1Cc1c(F)cccc1OC [N-{(3R,6S)-1-(2-fluoro-6-methoxybenzyl)-6-[methyl(propyl)carbamoyl]piperidin-3-yl}-3-(2-methylpyridin-4-yl)-1H-indazole-5-carboxamide]
7.69	CCOC(=O)N1CCN(C(=O)[C@@H]2CC[C@@H](NC(=O)c3ccc4[nH]nc(-c5ccnc(C)c5)c4c3)CN2Cc2c(F)cccc2OC)CC1 [ethyl 4-{[(2S,5R)-1-(2-fluoro-6-methoxy-benzyl)-5-({[3-(2-methylpyridin-4-yl)-1H-indazol-5-yl]carbonyl}amino)piperidin-2-yl]carbonyl}piperazine-1-carboxylate]
